{"source": "patent US20220009918A1", "about": "“Chemical Compounds” (GlaxoSmithKline Intellectual Property Development Limited, priority 2018, published 2022)", "key": {"[1]": {"tested_on": "prostaglandin D2 generation following 48/80-induced mast cell degranulation", "experiment": "In vivo mast cell activation: compound 48/80 challenge, peritoneal lavage PGD2 by LC/MS/MS", "set-up": "species or system mouse", "settings": "normal C57Bl6/N mice, oral 0.01-1.0 mg/kg ~1 hour prior to 48/80 (i.p.), lavage 7 minutes afterwards", "description": "In Vivo Mast Cell Activation\nMice were randomized by body weight into 8 groups (n=8): Vehicle (0.5% HPML with 0.1% Tween80)+phosphate buffered saline (PBS), vehicle+compound 48/80 (0.75 mg/mL) and compound 48/80+Example 16 at various doses ranging from 0.01 mg/kg to 1.0 mg/kg.\nC57BL mice were dosed orally with vehicle, or Example 16 at 0.01, 0.03, 0.1, 0.3, & 1.0 mg/kg. One hour later, blood samples were withdrawn via tail snip for measurement of drug levels, and mice were then terminally anesthetized with 2% isoflurane and given an intraperitoneal injection of 0.2 mL PBS or compound 48/80 solution (0.75 mg/mL, Sigma), followed by gentle massage of the abdomen. […]\nSamples were thawed at room temperature and vortex-mixed. […] The plate was vortex-mixed for 30 seconds at 1000 rpm and analyzed by LC/MS/MS.\nThe analytical system consisted of a CTC HTS PAL autoinjector (Leap, Carrboro, N.C.), an Agilent 1290 Infinity binary pump and thermostated column compartment (Agilent Technologies, Santa Clara, Calif.) and an AB Sciex QTRAP 5500 mass spectrometer (AB Sciex, Framingham, Mass.). […] The analytes were detected by multiple reaction monitoring (MRM) in negative mode using Turbolon spray with the transitions of m/z 351/271 amu for PGD2/PGE2 and m/z 360/280 amu for PGD2-d9/PGE2-d9. Data were acquired, analyzed and quantified using Analyst software version 1.6.2 (AB Sciex, Framingham, Mass.). […]"}, "[2]": {"tested_on": "male C57Bl/6N mice", "experiment": "In vivo functional response to muscle injury (eccentric contraction-induced)", "set-up": "species or system mouse", "description": "FIG. 1. Effect of different doses of an H-PGDS inhibitor, Example 16, on limb force following eccentric (lengthening) contraction-induced muscle injury in normal C57Bl6/N mice. Doses were administered 10 minutes prior to damage and QD thereafter.\nIn Vivo Assays for Functional Response to Muscle Injury\nUnder anesthesia, the right hind limb of a mouse is restrained at the knee and the foot attached to a motorized footplate/force transducer. Needle electrodes are inserted into the upper limb, either side of the sciatic nerve and a current sufficient to elicit a maximal muscle contraction is applied. Muscle tension is produced by moving the footplate to lengthen the plantarflexor muscles while the limb is under maximal stimulation. This is repeated 60 times to fatigue the muscles of the lower limb. Anesthesia, limb immobilization and limb stimulation are then repeated at regular intervals to measure maximal isometric force in the recovering limb. 7 to 9 animals are tested for each test condition."}}, "note": "Entries after “also recorded” stand apart in the source; their conditions may differ.", "data": [{"smiles": "CC1(C)C[C@H](NC(=O)c2cnc(-c3cc(F)cc(Cl)c3)s2)C(=O)N1", "note": "(single isomer, unassigned) [Example 16]", "values": [{"measurement": "PGD2 generation in peritoneal lavage fluid following compound 48/80 challenge (FIG. 2)", "setting": "[1]", "result": "prevents 48/80-induced PGD2 generation; also recorded: Dose-Dependent Reduction in Peritoneal Lavage Fluid PGD2"}, {"measurement": "protection from strength loss (maximal isometric torque) 24 hours after injury", "setting": "[2]; male C57Bl/6N mice, PO immediately prior to eccentric contraction challenge", "result": "dose-dependent protection from strength loss"}, {"measurement": "restoration of muscle function after 9 days", "setting": "[2]; male C57Bl/6N mice, repeat dosing (QD) PO, all doses greater than 0.1 mg/kg", "result": "full restoration of muscle function"}, {"measurement": "limb force / functional repair following eccentric contraction-induced limb muscle injury (FIG. 1)", "setting": "[2]; normal C57Bl6/N mice, doses 10 minutes prior to damage and QD thereafter", "result": "Accelerates Functional Repair"}]}]}
